Where a SMILES comes first, the peptide text is derived from it.
Details: basic group
With `COC(=O)Cc1ccccc1N` the pKa was 3.71. For `Cc1ccc(N)cc1[N+](=O)[O-]`, the pKa was 3. Compound `C=CCC(C)(CN(CC)CC)OC(=O)CC(C)C` (stereo not given) has a pKa of 8.1. Work on `NCCBr` yielded a pKa of 8.5. `O=[N+]([O-])c1ccc([O-])c(CN2CCOCCOCCOCCOCC2)c1` showed a pKa of 9.69. In the case of `CCCCNCCC(=O)[O-]`, the pKa is reported as 10.6. `COc1ccc(N)cc1` showed a pKa of 5.35. For `CN1CCC2Cc3ccc(O)c(O)c3C3CCCC1C23` (stereo not given), the pKa was 7.58. For `CC(C)(N)C(N)=S`, the pKa was 7.61. Work on `COc1ccc(/N=N/c2c(N)n[nH]c2N)cc1` yielded a pKa of 3.39. `Nn1cnnc1` showed a pKa of 2.53. With `Cc1c[n+](C)c([O-])nc1N` the pKa was 4.76. `CN(CO)c1ccccc1` showed a pKa of 3.72. With `CCCCNc1ccnc([S-])n1` the pKa was 11.1. With `CC(C)NCCCCCC[NH2+]C(C)C` the pKa was 10.9. With `CN1C(=O)N(CCN2CCOCC2)C(=O)C(C)(C2=CCCCC2)C1=O` (stereo not given) the pKa was 5.75. Compound `Cn1c(CCl)nc2c(O)ccc(O)c21` has a pKa of 4.03. `CCOCCn1c(N2CCC[NH+](CCCCn3cc(C(=O)[O-])cn3)CC2)nc2ccccc21` showed a pKa of 5.1. Compound `CC(C)C[C@H](N)C(=O)N[C@@H](Cc1c[nH]cn1)C(=O)[O-]` (H-Leu-His-OH) has a pKa of 7.78. In the case of `O=[N+]([O-])c1ccc2[nH]c(C(F)(F)F)nc2c1`, the pKa is reported as 0.18. In the case of `CNC(=O)c1ccncc1`, the pKa is reported as 3.8. Compound `CCNc1ccccc1` has a pKa of 5.29. `CCN(CC)N(C)C` showed a pKa of 6.88. Work on `N[C@H]1CCC[C@H](O)C1` yielded a pKa of 10.1. For `c1ccc(-c2ccc3nc(CN4CCOCC4)cn3n2)cc1`, the pKa was 6.25. Work on `C/C(=C(/S)CCO)N(C=O)Cc1cnc(C)nc1N` yielded a pKa of 4.19. `NC1(C(=O)[O-])CCCCC1` gave a pKa of 10. Work on `CC(C)(CN)CN` yielded a pKa of 10.2. `Cc1ccc(C[NH3+])cc1N` gave a pKa of 4.26. In the case of `CN(C)c1ccncc1`, the pKa is reported as 9.7. Compound `O=[N+]([O-])c1ccc(NO)cc1` has a pKa of 0.65. In the case of `O=C([O-])[C@]12CNCC[C@H]1O2`, the pKa is reported as 9.14. For `c1ccc(CN(Cc2ccccc2)Cc2ccccc2)cc1`, the pKa was 7.44. Work on `CC(CCN(C)C)NN` (stereo not given) yielded a pKa of 9.23. Compound `C1=CN2CCC1CC2` has a pKa of 9.82. Work on `O/N=C/c1ccccn1` yielded a pKa of 3.4. With `SCCN(Cc1ccccc1)Cc1ccccc1` the pKa was 7.62. Compound `O=C([O-])CCCCCN1CCCCC1` has a pKa of 10.5. For `[O-]c1[nH+]cnc2nc[nH]c12`, the pKa was 1.99. `CN[C@H]1C(C)[C@@H]1NC` (stereo not given in full) gave a pKa of 9.03. For `C[C@H](N)[C@H](O)c1ccc(O)cc1`, the pKa was 8.69. Compound `CN(C)C[C@@H]1[C@@H](N)[C@]2(C)CC[C@@H]1C2(C)C` has a pKa of 9.45. `Nc1ncnc([S-])c1N` showed a pKa of 9.34. Compound `Cc1ccc(N2CCCC2)cc1` has a pKa of 4.69. With `CC(C)CNCC(=O)[O-]` the pKa was 10.1. With `COC(=O)c1ccccn1` the pKa was 2.21. Work on `CCCCOc1ccc(OCCCN2CCOCC2)cc1` yielded a pKa of 6.24. Work on `CCN(CC)c1ccccc1` yielded a pKa of 6.6. `c1cc(N2CCOCC2)ccc1N1CCOCC1` gave a pKa of 4.2. Compound `CCOCCNc1cccc(C)c1` has a pKa of 4.24. `CNc1ccc[nH+]c1` gave a pKa of -2.17. `COc1ccc(-c2ncc(-c3ccc([NH3+])cc3)o2)cc1` showed a pKa of 0.85. For `CCC1CN1` (stereo not given), the pKa was 5.69. `Cc1nc2c(O)ccc(O)c2n1C` gave a pKa of 6.47. Work on `C=Cc1c(C)c2cc3nc(c(CC(=O)OC)c4[nH]c(cc5nc(cc1[nH]2)C(C)=C5CC)c(C)c4C(=O)NCC)[C@@H](CCC(=O)OC)[C@@H]3C` yielded a pKa of 2.7. `Cc1ncc[nH+]c1C` gave a pKa of -4.17. Work on `Cn1c(=O)cnc2ccccc21` yielded a pKa of -1.15. In the case of `CN1[C@H]2CC[C@@H]1[C@H](C(=O)[O-])[C@H](O)C2`, the pKa is reported as 11.1. `Cc1nc(C)c(C)[nH+]c1C` showed a pKa of -2.73. With `Nc1cccc2nnccc12` the pKa was 2.7. Compound `CCN(C)N` has a pKa of 7.3. Compound `CCCCCCCP(=O)(CCCCCCC)CCCCCCC` has a pKa of 4.65. Compound `c1ccc(-c2ccco2)nc1` has a pKa of 4.18. Compound `COc1nccc2ccccc12` has a pKa of 3.05. For `N#CC(C#N)=NNc1ccccc1`, the pKa was -0.82. Work on `Nc1c(O)cccc1O` yielded a pKa of 5.1. In the case of `N#CCCNc1ccccc1`, the pKa is reported as 4.5. Work on `CC/N=C1\C=C(NCC)CC(C)(C)C1` yielded a pKa of 12.1. Compound `O=C(O)Cc1[nH]c2ccccc2[nH+]1` has a pKa of -4.7. Compound `C#CCCCCN` has a pKa of 10.5. For `NNC(=O)c1cccc(N)c1`, the pKa was 3.75. With `O=C(/C=N/O)NCCN1CCOCC1` the pKa was 6.19. Compound `Nc1ccc2c(c1)Cc1c(O)cccc1-2` has a pKa of 4.63. With `Cc1ccccc1C(=NCCN(C)C)c1ccccc1C` the pKa was 8.5. Compound `CC(O)CNCCN` (stereo not given) has a pKa of 9.86. `CCC(C)(C)N` gave a pKa of 10.9. Work on `Cc1cc(-c2ccccc2)nn2cc(CN3CCOCC3)nc12` yielded a pKa of 6.3. `N=C(N)Nc1nc(N)nc(NC(N)=[NH2+])n1` showed a pKa of 7. `CN(C)c1cc[n+](O)cc1` gave a pKa of -7.58. In the case of `c1ccc(-c2[nH]c3ccccc3[nH+]2)nc1`, the pKa is reported as -1.59. For `CNCCC[NH2+]C`, the pKa was 8.68. Compound `N#CC(C#N)=NNc1cccc(Cl)c1` has a pKa of -0.78. With `COc1cc(OS(C)(=O)=O)ccc1-c1cn2cccnc2n1` the pKa was 3.95. With `CCN(CC)Cc1cn2nc(-c3ccccc3)cc(C)c2n1` the pKa was 8.79. For `N[C@H]1C[C@H]2CCCC[C@@H]2C[C@@H]1N`, the pKa was 10.1. Compound `CCN(CC)c1ccccc1C` has a pKa of 7.18. `CN(C)CCC(=O)C(C)(C)C` showed a pKa of 9.49. For `[O-]c1nccc2c1cnc1ccccc12`, the pKa was 11.3. For `O=C(Nc1ccncc1)c1ccccc1`, the pKa was 5.32. With `[NH3+]c1ccc(-c2nc3ccccc3s2)cc1` the pKa was 0.1.
